Measurements: PubChem BioAssay (NCI)
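GI50: concentration for 50% inhibition of growth. TGI marks complete inhibition of growth.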

Columns and labels:
Assay in all cases: NCI anticancer screen, dose series, 384-well format
SW-620 colon = tested on: SW-620 colon
HL-60(TB) leukemia = tested on: HL-60(TB) leukemia
MOLT-4 leukemia = tested on: MOLT-4 leukemia
SN12C renal = tested on: SN12C renal
RPMI-8226 leukemia = tested on: RPMI-8226 leukemia
NCI-H226 lung = tested on: NCI-H226 lung
KM12 colon = tested on: KM12 colon
786-0 renal = tested on: 786-0 renal
HCC-2998 colon = tested on: HCC-2998 colon
OVCAR-3 ovarian = tested on: OVCAR-3 ovarian
NCI-H322M lung = tested on: NCI-H322M lung
HOP-62 NSCLC = tested on: HOP-62 NSCLC
ACHN renal = tested on: ACHN renal
BT-549 breast = tested on: BT-549 breast
SK-MEL-2 melanoma = tested on: SK-MEL-2 melanoma
COLO 205 colon = tested on: COLO 205 colon
DU-145 prostate = tested on: DU-145 prostate
NCI-H23 lung = tested on: NCI-H23 lung
NCI-H522 lung = tested on: NCI-H522 lung
MALME-3M melanoma = tested on: MALME-3M melanoma
CAKI-1 renal = tested on: CAKI-1 renal
OVCAR-5 ovarian = tested on: OVCAR-5 ovarian
SR leukemia = tested on: SR leukemia
RXF 393 renal = tested on: RXF 393 renal
OVCAR-8 ovarian = tested on: OVCAR-8 ovarian
UACC-62 melanoma = tested on: UACC-62 melanoma
SK-MEL-5 melanoma = tested on: SK-MEL-5 melanoma
SF-268 CNS = tested on: SF-268 CNS
M14 melanoma = tested on: M14 melanoma
EKVX NSCLC = tested on: EKVX NSCLC
NCI/ADR-RES ovarian = tested on: NCI/ADR-RES ovarian
A498 renal = tested on: A498 renal
SF-295 CNS = tested on: SF-295 CNS
MDA-MB-231 breast = tested on: MDA-MB-231 breast
PC-3 prostate = tested on: PC-3 prostate
HCT-15 colon = tested on: HCT-15 colon
MDA-MB-435 melanoma = tested on: MDA-MB-435 melanoma
CCRF-CEM leukemia = tested on: CCRF-CEM leukemia
SNB-75 CNS = tested on: SNB-75 CNS
OVCAR-4 ovarian = tested on: OVCAR-4 ovarian
T-47D breast = tested on: T-47D breast
IGROV1 ovarian = tested on: IGROV1 ovarian
K-562 leukemia = tested on: K-562 leukemia
MCF7 breast = tested on: MCF7 breast
UO-31 renal = tested on: UO-31 renal
UACC-257 melanoma = tested on: UACC-257 melanoma
NCI-H460 NSCLC = tested on: NCI-H460 NSCLC
SK-MEL-28 melanoma = tested on: SK-MEL-28 melanoma
HOP-92 NSCLC = tested on: HOP-92 NSCLC
MDA-MB-468 breast = tested on: MDA-MB-468 breast
SF-539 CNS = tested on: SF-539 CNS
HT29 colon = tested on: HT29 colon
SK-OV-3 ovarian = tested on: SK-OV-3 ovarian
LOX IMVI melanoma = tested on: LOX IMVI melanoma
U251 glioblastoma = tested on: U251 glioblastoma
HS 578T breast = tested on: HS 578T breast
SNB-19 CNS = tested on: SNB-19 CNS

Work on COc1ccc(F)cc1-c1ccnc2[nH]c(C3=CCN(C4CCC(CC(=O)O)CC4)CC3)cc12 (centres undefined) yielded a GI50 (SW-620 colon) of 62.3 nM, a TGI (SW-620 colon) of 588 nM and a GI50 (HL-60(TB) leukemia) of 15.1 nM. For the same compound, the TGI (HL-60(TB) leukemia) was 32.5 nM, the GI50 (MOLT-4 leukemia) was 36.6 nM and the TGI (MOLT-4 leukemia) was 121 nM. For the same compound, the GI50 (SN12C renal) was 59.7 nM, the TGI (SN12C renal) was 282 nM and the GI50 (RPMI-8226 leukemia) was 42.2 nM. It also gave a TGI (RPMI-8226 leukemia) of 138 nM, a GI50 (NCI-H226 lung) of 116 nM and a TGI (NCI-H226 lung) of 451 nM. For the same compound, the GI50 (KM12 colon) was 28.9 nM, the TGI (KM12 colon) was 240 nM and the GI50 ([…]-0 renal) was 82.4 nM. It also gave a TGI (786-0 renal) of 266 nM, a GI50 (HCC-2998 colon) of 110 nM and a TGI (HCC-2998 colon) of 432 nM. The GI50 (OVCAR-3 ovarian) was 33.4 nM, the TGI (OVCAR-3 ovarian) was 183 nM and the GI50 (NCI-H322M lung) was 113 nM. The TGI (NCI-H322M lung) was 367 nM, the GI50 (HOP-62 NSCLC) was 52.4 nM and the TGI (HOP-62 NSCLC) was 194 nM. It also gave a GI50 (ACHN renal) of 156 nM, a GI50 (BT-549 breast) of 53.4 nM and a TGI (BT-549 breast) of 145 nM. It also gave a GI50 (SK-MEL-2 melanoma) of 49.3 nM, a TGI (SK-MEL-2 melanoma) of 176 nM and a GI50 (COLO 205 colon) of 33.6 nM. The TGI (COLO 205 colon) was 188 nM, the GI50 (DU-145 prostate) was 115 nM and the TGI (DU-145 prostate) was 1820 nM. It also gave a GI50 (NCI-H23 lung) of 49.5 nM, a TGI (NCI-H23 lung) of 195 nM and a GI50 (NCI-H522 lung) of 131 nM. It also gave a TGI (NCI-H522 lung) of 306 nM, a GI50 (MALME-3M melanoma) of 63 nM and a TGI (MALME-3M melanoma) of 197 nM. For the same compound, the GI50 (CAKI-1 renal) was 111 nM, the TGI (CAKI-1 renal) was 465 nM and the GI50 (OVCAR-5 ovarian) was 115 nM. The TGI (OVCAR-5 ovarian) was 31600 nM, the TGI (SR leukemia) was under 14.1 nM and the GI50 (RXF 393 renal) was 18.3 nM. It also gave a TGI (RXF 393 renal) of 53.7 nM, a GI50 (OVCAR-8 ovarian) of 54.6 nM and a TGI (OVCAR-8 ovarian) of 238 nM. For the same compound, the GI50 (UACC-62 melanoma) was under 16.4 nM, the TGI (UACC-62 melanoma) was 87.5 nM and the GI50 (SK-MEL-5 melanoma) was 48.7 nM. For the same compound, the TGI (SK-MEL-5 melanoma) was 156 nM, the GI50 (SF-268 CNS) was 22.3 nM and the TGI (SF-268 CNS) was 84.4 nM. It also gave a GI50 (M14 melanoma) of 87.2 nM, a TGI (M14 melanoma) of 304 nM and a GI50 (EKVX NSCLC) of 150 nM. For the same compound, the TGI (EKVX NSCLC) was 437 nM, the GI50 (NCI/ADR-RES ovarian) was 1220 nM and the TGI (NCI/ADR-RES ovarian) was 4590 nM. It also gave a GI50 (A498 renal) of 86.4 nM, a GI50 (SF-295 CNS) of 171 nM and a TGI (SF-295 CNS) of 456 nM. The GI50 (MDA-MB-231 breast) was 70.1 nM, the TGI (MDA-MB-231 breast) was 362 nM and the GI50 (PC-3 prostate) was 124 nM. For the same compound, the TGI (PC-3 prostate) was 520 nM, the GI50 (HCT-15 colon) was 63.7 nM and the TGI (HCT-15 colon) was 2320 nM. The GI50 (MDA-MB-435 melanoma) was 130 nM, the TGI (MDA-MB-435 melanoma) was 411 nM and the GI50 (CCRF-CEM leukemia) was 21.8 nM. The TGI (CCRF-CEM leukemia) was 57.8 nM, the GI50 (SNB-75 CNS) was 48.3 nM and the TGI (SNB-75 CNS) was 172 nM. It also gave a GI50 (OVCAR-4 ovarian) of 158 nM, a TGI (OVCAR-4 ovarian) of 492 nM and a GI50 (T-47D breast) of 72 nM. It also gave a GI50 (IGROV1 ovarian) of 77.1 nM, a TGI (IGROV1 ovarian) of over 100000 nM and a GI50 (K-562 leukemia) of 136 nM. For the same compound, the TGI (K-562 leukemia) was 521 nM, the GI50 (MCF7 breast) was 31.1 nM and the TGI (MCF7 breast) was 12000 nM. For the same compound, the GI50 (UO-31 renal) was 102 nM, the TGI (UO-31 renal) was 691 nM and the GI50 (UACC-257 melanoma) was 138 nM. For the same compound, the TGI (UACC-257 melanoma) was 288 nM, the GI50 (NCI-H460 NSCLC) was 63.4 nM and the TGI (NCI-H460 NSCLC) was 183 nM. For the same compound, the GI50 (SK-MEL-28 melanoma) was 39.1 nM, the TGI (SK-MEL-28 melanoma) was 202 nM and the GI50 (HOP-92 NSCLC) was 94.1 nM. It also gave a GI50 (MDA-MB-468 breast) of 34.1 nM, a TGI (MDA-MB-468 breast) of 118 nM and a GI50 (SF-539 CNS) of 104 nM. For the same compound, the TGI (SF-539 CNS) was 277 nM, the GI50 (HT29 colon) was 184 nM and the TGI (HT29 colon) was 606 nM. It also gave a GI50 (SK-OV-3 ovarian) of 398 nM, a TGI (SK-OV-3 ovarian) of over 25900 nM and a GI50 (LOX IMVI melanoma) of 33.6 nM. For the same compound, the TGI (LOX IMVI melanoma) was 141 nM, the GI50 (U251 glioblastoma) was 142 nM and the TGI (U251 glioblastoma) was 490 nM. For the same compound, the GI50 (HS 578T breast) was 19 nM, the TGI (HS 578T breast) was 55.7 nM and the GI50 (SNB-19 CNS) was 78.7 nM. For the same compound, the TGI (SNB-19 CNS) was over 68300 nM.
